The values that follow come from patent US6355629B2, “Prodrugs with enhanced penetration into cells” (D-Pharm Ltd., priority 1993, dated 2002).

Series [1] deals with isoproterenol induced myocardial damage. Kind of series: Isoproterenol induced myocardial damage. It counts as in vivo, Sprague-Dawley rats. Here is the method: Administration of the potent β-adrenoreceptor agonist isoproterenol (ISO) is commonly accepted model of experimental myocardial pathology. The cardioprotective effect of DP16 was tested on 82 Sprague-Dawley female rats weighing 250-350 g. Myocardial damage was induced in rats by two consecutive injections of ISO ([…], s.c.). When appropriate, the injections of ISO were followed in 30 and 180 minutes by DP16 (0.01 μg/kg, i.p.). The effect of DP16 was estimated by ECG analysis and determination of serum glutamate-oxaloacetate transaminase (SGOT) and lactatdehydrogenase (LDH) activity. Mortality of control rats after ISO intervention was 17.1±5.9% (7 out of 41). […] Pathological signs on ECG were aggravated during the experimental period. […] Administration of DP16 decreased mortality in 2 cases (2 out of 30). […] Pathological displacement of the ST-segment was found only on 28 and 40% of ECG (in 24 and in 48 hours following ISO respectively).

The test system of series [2] is pilocarpine induced epileptic seizures. Kind of series: Pilocarpine based model of experimental epilepsy. It is filed as in vivo, rats. The procedure:
Acetylcholine, acetylcholinesterase inhibitors and acetylcholine analogues are effective epileptogenic agents when applied intracerebrally or systematically (see ref. in Leite et al., Neurosci. & Biobeh. Rev., 1990, 14:511-17). […] Systemic injections of the pilocarpine, a potent muscarinic cholinergic agonist, are capable of producing a sequence of behavioral alterations including stirring spells, facial automatisms and motor limbic seizures, that develop over 1-2 hours and build progressively into limbic status and following by general status epilepticus.
Immediately following injection of pilocarpine, akinesia, ataxic lurching, facial automatism and […] dominated the animals' behavior. Further development of epileptic events is dose-dependent. Administration of pilocarpine in doses of 300-350 mg/kg causes appearance of limbic seizures with rearing, forelimb clonus, salivation, intense masticatory jaw movements and falling. Motor limbic seizures commenced after 20-30 min., recurred every 2-8 min and lead to status epilepticus. Increase of the dose of pilocarpine up-to 400mg/kg abolished limbic seizures and after 15-25 min of initial behavioral alterations causes fatal general tonic-clonic convulsions. We consider this dose as the LD100.

The test system of series [3] is metrazol induced seizures (myoclonic jerks). Kind of series: Metrazol minimal seizures test. It counts as in vivo, BALB/c mice. The conditions noted are these: 30 min before Metrazol s.c. Here is the method: Testing of DP16 as a possible antiepileptic drug was performed on 3-4 week old male BALB/c mice (18-27 g). Animals were maintained on an adequate diet and allowed free access to food and water except briefly during the experimental period. Animals were separately housed for one hour in transparent plastic cages before treatment and during the experimental period. Drugs were dissolved in normal saline with injection volume adjusted to 0.01 ml/g of body weight. DP16 was administered i.p., in doses ranging from 0.1 to 300 μg/kg: (0.1 μg/kg: n=10, 5 μg/kg: n=10, 25 μg/kg: n=20, 75 μg/kg: n=20, 150 μg/kg: n=20, and 300 μg/kg: n=10 animals respectively). Control animals received injections i.p. of normal saline. DP16 or saline administration followed in 30 minutes by Metrazol ([…], s.c.). […] Absence or relative delay of myoclonic jerks (MJ) in the experimental group was considered as indication of possible antiepileptic activity. Data were subjected to chi-square analysis with the computer statistic package “StatViewII”,

In series [4] the test system is isolated hearts from pilocarpine-treated rats. The series can be described thus: Perfusion-Hypoxia-Reperfusion isolated Langendorff heart from pilocarpine-treated rats. The note with it: treatment prior to pilocarpine; initial and final periods of perfusion. Also noted: species or system Sprague-Dawley rats. The procedure:
(§1) Adult (2-3 months) male Sprague-Dawley rats were used for all experiments. They were fed with standard briquette chow with water ad libitum and were maintained in standard plastic cages (4-5 individuals in each cage) under natural illumination. A pilocarpine-scopolamine epileptic status model (pilocarpine) was performed as described earlier. In a group of 23 rats, pilocarpine was administered i.p. in different doses which ranged from 100 to 400 mg/kg body weight (B/W) for different periods of time; a second group of 17 rats was treated with DP16 prior to pilocarpine administration, wherein the DP16 was injected for 30 min before pilocarpine in the next dose range and its effect was investigated in the ensuing periods.
(§2) In vivo ECG (Birtcher-Cardio-Tracer, model 375, USA) in three standard leads were recorded under ketamine anesthesia (3.3 mg/ky Imalgene 100, Rhone Merieux, France and 7 mg/kg Rompun, Bayer Leverkusen, Germany, i.m.). […] In the case of constant PP the volume of effluent flow was measured on electron balance (Precisa 1000C-3000D, Switzerland). […] Direct ECG were recorded from ventricular apex (lead 1), auriculum (lead 2) and in-between (lead 3). The coronary vessel's perfusion resistance (CVPR) was calculated in arbitrary units as follows: PP/flow/heart weight. […]

Series [5] relates to rat model of permanent cerebral ischemia. Kind of series: Bilateral permanent cerebral ischemia model (common carotid artery ligation). The note with it: rats, i.p. 0.001-0.1 mg/kg following artery ligation; p<0.01; FIG. 2. It counts as in vivo. Here is the method:
Bilateral ligation of the common carotid arteries is the simplest and most direct approach for inducing permanent partial ischemia. In the rats there is almost 64% mortality 24 h later. The causes of mortality are largely brain swelling (edema) and focal lesions (infarcts). Permanent partial global is achieved by isolation of the common carotid artery through an incision on the ventral surface of the neck. The salivary glands are moved laterally and the carotid sheath exposed. Both the vagus and sympathetic nerves are separated from the common carotid artery, which is then permanently ligated. Sprague-Dawley rats (250-300 g) were anesthetized with halothane or by intramuscular injection of 0.1 ml Ketamine (0.1 g/ml, Parke Davis UK) and 0.1 ml Rompun (2%, Bayer, FRG) per 300 g body weight. DP16 was administered intraperitoneally (i.p., 0.001-0.1 mg/kg) when appropriate following the artery ligation. Every experimental and control group included 14 male rats. Statistical analysis was performed according to t-test criteria.

Series [6] concerns post-pilocarpine-seizure-cardiopathy (PSCP). Kind of series: Post-pilocarpine-seizure cardiopathy (PSCP) model, in vivo ECG. Also noted: species or system Sprague-Dawley rats. The procedure: as §1, §2
The next series deals with rat hearts. The series can be described thus: Ex-vivo rat heart Low-flow-Reperfusion Langendorff model. The source says:
Low-flow Reperfusion Langendorff's heart (Meely and Rovetto, 1975, METHODS IN ENZYMOLOGY, v39:43-60) is an established ex vivo model of a human ischemic heart. A severe decrease in perfusion pressure (PP) below 20 mm Hg (low-flow period) causes sinus bradycardia culminating by stable AV block (“AVB”; 10 out of 11 hearts) frequently followed by ventricular arythmia. Restoration of perfusion pressure causes paroxysmal tachyarrhythmia followed by irreversable ventricular fibrillation (VF).
The experiments were preformed ex vivo on 39 rat hearts. Heart electrical activity and perfusion pressure were stable following 15 min., each. Perfusion buffer was supplemented with DP16 (1.0 μg/l) following the stable AV block during low flow perfusion and during the Reperfusion period.
The experimental protocol documented by FIG. 16 included periods of Normal Coronary Flow (FIG. 6, NF, panel 1) followed by Low-Flow (LF) and then by Normal flow-reperfusion (NF-Rp) (panels 2 and 3, respectively).
The experiments were performed by addition of DP16 (0.5-500 μg/l) to the perfusion buffer after AV block establishment.

For series [7], the system named is metrazol induced convulsions and death. The series can be described thus: Metrazol anticonvulsant test (prevention of convulsions and/or death). It counts as in vivo, mice. The conditions noted are these: for ED100: mice, one hour before s.c. metrazol (80 mg/kg), 30 minutes observation, TVA16 i.p. Here is the method:
A test sample of TVA16 was administered i.p. (0.01 to 100 mg/kg) to a group of three mice, one hour before an s.c. dose of metrazol (80 mg/kg). An effective dose was the amount which prevented convulsions (scored 2 points per animal) and/or death (scored 1 point per animal) in the subsequent 30 minutes.

In series [8] the test system is lymphocytes from donor blood and from the blood of an asthmatic patient. Kind of series: Intracellular free [Ca2+]i by flow cytometry with fluo-3/AM. It is filed as cell-based, human. The conditions noted are these: in either stimulated or untreated cells. Here is the method: Intracellular free [Ca^2+]i content was monitored by flow cytometry using the Ca^2+-sensitive dye fluo-3/AM (Molecular Probe Inc., OR)(Minta, Kao and Tsien, 1989, J. Biol. Chem. 264:8171-8178). Cells obtained from donor blood and those from the blood of an asthmatic patient were further washed twice in DMEM and resuspended to a concentration of 10^7 cells/ml. Fluo-3/AM (1 mM) was prepared in DMSO augmented with the nonionic surfactant Pluronic F-127 (Wyandotte Corp., Mich.). Aliquots of fluo-3/AM stock solution were added to cell suspensions in DMEM/HEPES at a final concentration of 3 μM (loading buffer). Loading was allowed to proceed for 30 min. at 37° C. and continued for 1 hour at 23° C. with gentle agitation. Cells were then adjusted to desired concentrations using fresh DMEM/HEPES, supplemented with 2% horse serum. Autofluorescence was eliminated by setting the threshold sensitivity above the levels obtained in absence of dye. Fluorescence intensity data was collected from 5000 single cells and values were expressed as arbitrary fluorescence units. Prodrug-1 (1 mM) was prepared in DMSO and added when appropriate at a final concentration of 3 μM to the cells for 5 min. prior to calcium treatment.
Lymphocytes from donor blood and from the blood of an asthmatic patient were exposed to prodrug-1. […]

SMILES strings stand for the structures. Read-outs that look alike come from different tables or passages of the source.

As to `CCCCCCCCCCCCCCCC(=O)OCC(COP(=O)([O-])OCC[N+](C)(C)C)OC(=O)CN(CC(=O)O)c1ccccc1OCCOc1ccccc1N(CC(=O)O)CC(=O)O` (stereo not drawn) [DP16], in [1] (0.01 μg/kg i.p.), the “percentage of animals exhibiting abnormal level of SGOT and LDH activity” value was “substantially decreased”. The mortality in series [1] (0.01 μg/kg i.p. 30 and 180 minutes after ISO, control 7 out of 41) is 2 out of 30. The “pathological displacement of the ST-segment, share of ECG” value in series [1] (24 hours following ISO) was 28%; in series [1] (48 hours following ISO) it was 40%. The “dose range with dose dependent therapeutic effects” value in series [2] (FIG. 4, reduction in fatal seizures) is 10^−8 to 10^−5 mg/kg. The “effect on death and epileptiform manifestations” value in series [2] (administered prior to pilocarpine) was “prevented death in the animals and decreased epileptiform manifestations”. In addition, the “estimated therapeutic index (ET)” value in series [2] (pilocarpine 400 mg/kg, rats, 0.5 mg/kg/5×10^−7 mg/kg) is listed as 1×10^6. Further, the “response to metrazol (myoclonic jerks)” value was “same response to metrazol as control” in [3] (0.1 μg/kg i.p.) and “significant protective effect” in series [3] (5 to 300 μg/kg i.p., p<0.001). Moreover, the “coronary vessel's perfusion resistance (CVPR) regulation” value in series [4] is recorded as “prevents damage of CVPR regulation”. In addition, the “decrease of post-ischemic mortality compared with control” value in series [5] is given as 250%. For the same compound, the “ECG alterations in the phase of stabilization” value in series [6] (3-14 days after pilocarpine, p<0.01 vs not protected) is given as “prevents the appearance of ECG alterations”. The “normalized electrical activity (ECG) at the acute stage of PSCP” value in series [6] (DP16 prior to pilocarpine, 24h after pilocarpine) is recorded as 5 out of 7. The “complete restoration of AV synchronism” value in the series with rat hearts (1.0 μg/l in perfusion buffer after AV block establishment) is given as 11 out of 16. Also, the “decreased level of AVB and prevented ventricular fibrillation” value in the series with rat hearts (1.0 μg/l, additional cases of the 16 experiments) came to 5 cases. Also, the “efficiency in resolving atrio-ventricular blockade and preventing ventricular fibrillation compared to BAPTA and BAPTA-AM” value in the series with rat hearts (FIG. 7) was “much better efficiency”. Further, the “full restoration of the sinus rhythm during reperfusion” value with rat hearts (reperfusion period) is recorded as 11 out of 16.
As for `C[C@]12N[C@H](Cc3ccccc31)c1ccccc12` [MK-801], in series [7] (Mus musculus, read-out: ED100), the ED100 is 0.5 mg/kg.
Same read-out and setting: the same measure for `CCC1(c2ccccc2)C(=O)NC(=O)NC1=O` [phenobarbital]: 50 mg/kg; for `CCCC(C)(COC(N)=O)COC(N)=O` [meprobamate]: 200 mg/kg.
Turning to `CCCCCCCCCCCCCCCC(=O)OCC(COP(=O)([O-])OCC[N+](C)(C)C)OC(=O)C(CCC)CCC` (stereo not drawn) [TVA16], the “dose response curve compared to valproic acid itself” value in [7] (FIG. 8, doses as mg of valproic acid per kg body weight) was “improvement”. In addition, in series [7] (from Table 1), the “potency relative to sodium valproate” value is listed as “more than 500 ×”. This compound also had an ED100 in series [7] of 20 mg/kg.
On to `CCC1(c2ccccc2)CCC(=O)NC1=O` (stereo not drawn) [glutethimide], for which the ED100 in series [7] (Mus musculus, read-out: ED100) was determined as 150 mg/kg.
Same read-out and setting: the same measure for `CN1C(=O)CN=C(c2ccccc2)c2cc(Cl)ccc21` [diazepam]: 2.5 mg/kg.
In the case of `CC[C@@H]1C(=O)OC[C@@H]1Cc1cncn1C` [pilocarpine, reference compound], the “LD100 (fatal general tonic-clonic convulsions)” value in series [2] (rats) is 400 mg/kg.
Regarding `O=C(O)CN(CC(=O)O)c1ccccc1OCCOc1ccccc1N(CC(=O)O)CC(=O)O` [BAPTA, 1,2-bis-(2-aminophenoxy)ethane-N,N,N′,N′-tetraacetic acid], in series [8], the “reducing the intracellular calcium levels” value is listed as “ineffective”.
